Data: patent publication EP1038880B1, “Androstanes and pregnanes for allosteric modulation of GABA receptor” (priority 1994, dated 1995)

Experiments:
GR complex = assay: [35S]TBPS binding assay (inhibition of [35S]TBPS binding, cerebral cortex P2 homogenate); design: species or system rat; conditions: for IC50: 2 nM [35S]TBPS, rat cerebral cortex P2 homogenate; for IMAX: maximum inhibition of [35S]TBPS binding
In short: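 Rat (male Sprague-Dawley) cortical P2 homogenate (0.5 mg protein) in 50 mM Na/K phosphate pH 7.4, 200 mM NaCl, incubated with 2 nM [35S]TBPS plus steroid test compounds (DMSO) in presence of GABA plus (+)bicuculline, 25°C, 90 min. Filtration, scintillation counting; nonspecific binding defined with […].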

[1] = tested on: Bovine Uteral Progesterone Receptors; assay: Inhibition of 3H-progesterone binding, uterus cytosol; conditions: competitor 10^-6M; 3H-progesterone 0.15 nM
In short: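 Rat uterus cytosol was incubated with 0.15 nM ^3H-progesterone plus test compounds. Values are percent inhibition of specific binding versus a compound-free control incubation.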

Glucocorticoid Receptors = molecular target: T1, Glucocorticoid Receptors (Rattus norvegicus, UniProt P06536); assay: Inhibition of 3H-dexamethasone binding, brain cytosol; design: species or system rats; dose or concentration left out as unconfirmed; conditions: read-out: % of Inhibition
T1 construct: from tissue; host or cells: rat brain cytosol
T1 sequence (P06536 1-795): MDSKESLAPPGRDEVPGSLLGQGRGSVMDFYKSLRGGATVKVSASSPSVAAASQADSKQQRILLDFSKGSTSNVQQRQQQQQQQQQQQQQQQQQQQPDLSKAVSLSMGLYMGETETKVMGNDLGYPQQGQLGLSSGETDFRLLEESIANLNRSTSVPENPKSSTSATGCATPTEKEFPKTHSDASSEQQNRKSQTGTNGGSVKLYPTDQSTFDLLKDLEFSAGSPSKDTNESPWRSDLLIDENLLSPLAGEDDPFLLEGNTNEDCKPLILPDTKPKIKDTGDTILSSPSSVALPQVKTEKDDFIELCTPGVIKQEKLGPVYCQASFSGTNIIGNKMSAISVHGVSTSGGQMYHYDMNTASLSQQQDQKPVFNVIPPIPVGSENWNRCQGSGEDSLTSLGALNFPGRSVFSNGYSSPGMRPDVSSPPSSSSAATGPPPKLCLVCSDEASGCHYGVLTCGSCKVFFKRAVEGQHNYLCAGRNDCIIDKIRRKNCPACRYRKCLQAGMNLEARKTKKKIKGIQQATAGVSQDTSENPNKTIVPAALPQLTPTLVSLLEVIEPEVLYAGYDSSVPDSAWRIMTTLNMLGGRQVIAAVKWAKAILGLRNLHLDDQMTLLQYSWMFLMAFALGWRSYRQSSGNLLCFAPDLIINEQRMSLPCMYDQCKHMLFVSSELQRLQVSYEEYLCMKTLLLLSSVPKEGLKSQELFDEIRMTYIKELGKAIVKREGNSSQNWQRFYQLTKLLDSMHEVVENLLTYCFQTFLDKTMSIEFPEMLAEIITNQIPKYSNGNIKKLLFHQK
Method: Various hormonal activities of representative neuroactive steroids were further studied through testing their potential estrogenic, mineralocorticoid and glucocorticoid activities. These activities were analyzed by monitoring the ability of the compounds to inhibit binding of the steroid hormones to their respective hormone receptors.
For Table 4, brain cytosol fractions were prepared as for Table 3, and the compounds were incubated with 3 nM of ^3H-dexamethasone (the specific ligand for the glucocorticoid receptor).

tonic seizure = assay: Maximal electroshock test; assay type: in vivo; conditions: Mus musculus, ip, steroids i.p., mice
Method: (§1) The anticonvulsant tests are similar to that described above. […] The number of animals with tonic and/or clonic convulsions was recorded. In the maximal electroshock test, 50 mA of current at 60 Hz was delivered through corneal electrodes for 200 msec to induce tonic seizure. The ability of compounds to abolish the tonic component was defined as the endpoint. General CNS depression potential was determined by a rotorod test 10 minutes after the injection of compounds where the number of mice staying on a rotating (6 rpm) rod for 1 minute in one of the three trials was determined. […] Table 7. Anticonvulsant Activity of Exemplified Neuroactive Steroids and those of Selected Clinically Useful Anticonvulsants in Mice

(+)bicuculline = assay: Anticonvulsant test against (+)bicuculline; assay type: in vivo, mice; conditions: Mus musculus, read-out: ED50 BIC
Method: as §1

picrotoxin = assay: Anticonvulsant test against picrotoxin; assay type: in vivo, mice; conditions: Mus musculus, read-out: ED50 PICRO
Method: as §1

strychnine = assay: Anticonvulsant test against strychnine; assay type: in vivo, mice; conditions: Mus musculus, read-out: ED50 STR
Method: as §1

SMILES: CC(=O)[C@H]1CC[C@H]2[C@@H]3CC[C@H]4C[C@H](O)CC[C@]4(C)[C@H]3CC[C@]12C [3α-Hydroxy-5α-pregnan-20-one, 3α-hydroxy-5α-pregnan-20-one]
- IC50 (GR complex): 37 nM
- IMAX (GR complex): 95%
- % of Inhibition [1]: 14%
- inhibition (Glucocorticoid Receptors): 8.7%
- ED50 (tonic seizure): 28.6 mg/kg
- ED50 ((+)bicuculline): 12.3 mg/kg
- ED50 (picrotoxin): 10.2 mg/kg
- ED50 (strychnine): > 300 mg/kg

SMILES: C[C@]12CC[C@@H](O)C[C@@H]1CC[C@@H]1[C@@H]2CC[C@]2(C)[C@@H](C(=O)CO)CC[C@@H]12 [3α,21-dihydroxy-5α-pregnan-20-one]
- IC50 (GR complex): 76 nM
- IMAX (GR complex): 100%
- % of Inhibition [1]: 13%
- inhibition (Glucocorticoid Receptors): 29.5%
- ED50 (tonic seizure): 26.7 mg/kg
- ED50 ((+)bicuculline): 17.8 mg/kg
- ED50 (picrotoxin): 5.6 mg/kg
- ED50 (strychnine): > 300 mg/kg
